ChEMBL document CHEMBL1201862, “PubChem BioAssay data set” (2004)
Calls of active or inactive are those of the source.

Columns and labels:
Large T antigen = Large T antigen (Simian virus 40, UniProt P03070); format: functional, Betapolyomavirus macacae;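 also: Confirmatory-stage PubChem screen for compounds that inhibit SV40 T antigen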
[1] = molecular target: T1, Replicative DNA helicase DnaB (Mycobacterium tuberculosis, UniProt P9WMR3); experiment: DnaB intein splicing inhibitors, dose response, biochemical, cell-free fluorescence (AID 449749); format: functional
T1 sequence (P9WMR3 whole entry): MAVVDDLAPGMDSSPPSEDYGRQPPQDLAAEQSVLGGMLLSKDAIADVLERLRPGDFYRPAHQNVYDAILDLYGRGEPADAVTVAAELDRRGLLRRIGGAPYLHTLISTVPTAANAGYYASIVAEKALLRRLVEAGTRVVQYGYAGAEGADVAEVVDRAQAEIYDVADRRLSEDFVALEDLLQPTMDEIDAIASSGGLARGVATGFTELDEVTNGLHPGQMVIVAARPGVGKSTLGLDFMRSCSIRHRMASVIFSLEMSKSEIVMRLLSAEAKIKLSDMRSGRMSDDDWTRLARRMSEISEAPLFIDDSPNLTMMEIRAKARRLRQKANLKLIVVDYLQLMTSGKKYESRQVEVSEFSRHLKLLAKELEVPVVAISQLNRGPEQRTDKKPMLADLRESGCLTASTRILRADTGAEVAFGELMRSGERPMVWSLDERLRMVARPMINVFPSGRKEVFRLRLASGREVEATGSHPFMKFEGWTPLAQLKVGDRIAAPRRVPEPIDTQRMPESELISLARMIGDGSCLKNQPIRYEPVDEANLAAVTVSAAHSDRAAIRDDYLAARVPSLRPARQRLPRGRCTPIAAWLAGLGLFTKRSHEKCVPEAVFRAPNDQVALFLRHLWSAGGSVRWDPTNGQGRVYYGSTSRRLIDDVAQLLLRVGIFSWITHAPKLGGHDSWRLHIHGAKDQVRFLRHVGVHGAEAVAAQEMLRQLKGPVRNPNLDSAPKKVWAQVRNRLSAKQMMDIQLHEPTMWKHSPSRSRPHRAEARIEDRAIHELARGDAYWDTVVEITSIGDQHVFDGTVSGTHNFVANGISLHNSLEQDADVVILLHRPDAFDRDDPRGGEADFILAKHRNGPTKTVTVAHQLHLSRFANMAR

Protein RecA = molecular target: T2, Protein RecA (Mycobacterium tuberculosis, UniProt P9WHJ3); experiment: Fluorescence Cell-Free Homogeneous Dose Retest to Identify Inhibitors of RecA-Intein Splicing Activity. [Related pubchem assays (depositor defined):AID2097, AID2223, AID489010, AID492950]; format: functional
T2 sequence (P9WHJ3 whole entry): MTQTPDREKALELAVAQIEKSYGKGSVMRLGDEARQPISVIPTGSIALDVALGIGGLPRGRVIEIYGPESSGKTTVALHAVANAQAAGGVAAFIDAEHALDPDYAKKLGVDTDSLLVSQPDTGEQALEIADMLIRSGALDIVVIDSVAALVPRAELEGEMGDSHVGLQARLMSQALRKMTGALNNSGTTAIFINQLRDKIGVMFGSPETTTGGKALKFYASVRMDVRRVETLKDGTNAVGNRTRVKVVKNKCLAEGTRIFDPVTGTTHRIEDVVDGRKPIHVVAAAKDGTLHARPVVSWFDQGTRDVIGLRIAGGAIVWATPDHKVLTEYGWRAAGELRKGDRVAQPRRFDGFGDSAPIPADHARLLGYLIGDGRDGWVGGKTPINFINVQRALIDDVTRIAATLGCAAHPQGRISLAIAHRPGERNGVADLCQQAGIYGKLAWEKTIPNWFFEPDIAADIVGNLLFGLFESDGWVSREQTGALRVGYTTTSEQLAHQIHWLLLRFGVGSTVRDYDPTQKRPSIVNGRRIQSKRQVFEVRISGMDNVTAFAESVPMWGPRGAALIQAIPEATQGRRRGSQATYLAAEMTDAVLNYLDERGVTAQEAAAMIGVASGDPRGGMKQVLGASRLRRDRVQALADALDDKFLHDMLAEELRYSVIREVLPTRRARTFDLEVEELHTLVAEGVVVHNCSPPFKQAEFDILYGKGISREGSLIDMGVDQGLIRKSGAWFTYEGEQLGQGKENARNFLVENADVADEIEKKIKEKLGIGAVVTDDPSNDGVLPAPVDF

[2] = molecular target: T3, Rac GTPase-activating protein 1 (Homo sapiens, UniProt Q9H0H5); experiment: blockers of MgcRacGAP-driven Rac1 GTP hydrolysis – biochemical, ADP Hunter fluorescence, primary and confirmatory, confirmation (AID 624330); format: functional
T3 sequence (Q9H0H5 whole entry): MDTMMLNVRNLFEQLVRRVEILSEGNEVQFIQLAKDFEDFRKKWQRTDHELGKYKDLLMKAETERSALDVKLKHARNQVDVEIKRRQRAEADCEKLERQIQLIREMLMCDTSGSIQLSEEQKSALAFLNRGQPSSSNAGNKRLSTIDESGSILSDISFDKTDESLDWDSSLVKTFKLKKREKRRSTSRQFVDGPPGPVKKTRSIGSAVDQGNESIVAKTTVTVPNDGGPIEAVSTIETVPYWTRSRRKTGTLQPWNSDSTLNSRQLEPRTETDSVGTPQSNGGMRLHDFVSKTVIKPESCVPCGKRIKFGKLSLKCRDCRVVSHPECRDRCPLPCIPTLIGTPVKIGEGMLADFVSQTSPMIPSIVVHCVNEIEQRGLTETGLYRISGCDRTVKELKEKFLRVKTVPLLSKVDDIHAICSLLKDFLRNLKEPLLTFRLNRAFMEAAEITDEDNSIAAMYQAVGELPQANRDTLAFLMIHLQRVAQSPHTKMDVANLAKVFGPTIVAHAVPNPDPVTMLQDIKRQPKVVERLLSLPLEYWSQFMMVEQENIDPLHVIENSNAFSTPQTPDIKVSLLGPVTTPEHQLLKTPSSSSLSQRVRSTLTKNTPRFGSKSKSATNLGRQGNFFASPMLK

[3] = molecular target: T4, Corticotropin-releasing factor receptor 2/Corticotropin-releasing factor-binding protein (Homo sapiens, UniProt P24387+Q13324); experiment: Dose Response confirmation of uHTS hits for small molecule antagonists of the CRF-binding protein and CRF-R2 receptor complex.; format: functional; conditions: read-out: IC50_Mean
T4 sequence (Q13324 whole entry): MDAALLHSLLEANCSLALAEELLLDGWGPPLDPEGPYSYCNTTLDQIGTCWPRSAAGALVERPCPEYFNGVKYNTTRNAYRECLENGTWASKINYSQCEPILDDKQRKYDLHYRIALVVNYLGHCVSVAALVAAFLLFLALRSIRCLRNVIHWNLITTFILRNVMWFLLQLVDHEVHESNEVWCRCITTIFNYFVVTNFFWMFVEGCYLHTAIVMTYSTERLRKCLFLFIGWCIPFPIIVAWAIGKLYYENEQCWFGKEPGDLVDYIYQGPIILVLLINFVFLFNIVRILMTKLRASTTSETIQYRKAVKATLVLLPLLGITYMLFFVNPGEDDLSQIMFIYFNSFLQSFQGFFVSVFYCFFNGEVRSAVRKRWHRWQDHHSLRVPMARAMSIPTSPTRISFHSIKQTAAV
T4 sequence (P24387 whole entry): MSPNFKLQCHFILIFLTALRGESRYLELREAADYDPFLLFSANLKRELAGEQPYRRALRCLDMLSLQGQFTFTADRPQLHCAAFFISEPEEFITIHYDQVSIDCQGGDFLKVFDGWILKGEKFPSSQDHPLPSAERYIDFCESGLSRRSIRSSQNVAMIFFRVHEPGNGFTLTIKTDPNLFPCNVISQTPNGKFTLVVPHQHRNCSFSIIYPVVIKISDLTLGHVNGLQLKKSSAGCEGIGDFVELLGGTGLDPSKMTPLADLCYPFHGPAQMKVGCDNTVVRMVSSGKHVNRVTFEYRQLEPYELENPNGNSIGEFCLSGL

[4] = molecular target: T4, Corticotropin-releasing factor receptor 2/Corticotropin-releasing factor-binding protein; experiment: activators of CRF receptor 2 with binding protein – uHTS hits, confirmation (AID 602473); format: functional; conditions: read-out: EC50_Mean
[5] = Luminescence Cell-Based Dose Confirmation HTS to Identify Activators of 5'UTR Stem-Loop Driven Alpha-Synuclein mRNA Translation in H4 Neuroglioblastoma Cells. [Related pubchem assays: 1829 (Project Summary), 1814 (Primary HTS)]; format: functional
[6] = Luminescence Cell-Based Dose Response HTS to Identify Activators of Luciferase Translation or Activity in H4 […] Cells. [Related pubchem assays: 1829 (Project Summary), 1814 (Primary HTS)]; format: functional
H4 = experiment: Luminescence Cell-Based Dose Response HTS to Identify Activators of 5'UTR Stem-Loop Driven Prion Protein mRNA Translation in H4 Neuroglioblastoma Cells. [Related pubchem assays: 1829 (Project Summary), 1814 (Primary HTS)]; format: functional; conditions: Homo sapiens
[7] = molecular target: FAD-linked sulfhydryl oxidase ALR (Homo sapiens, UniProt P55789); experiment: ALR-catalysed DTT oxidation blockers – biochemical, H2O2 detection, luminescence, cherry-pick, dose response (AID 493248)
Chain of FAD-linked sulfhydryl oxidase ALR (P55789 whole entry): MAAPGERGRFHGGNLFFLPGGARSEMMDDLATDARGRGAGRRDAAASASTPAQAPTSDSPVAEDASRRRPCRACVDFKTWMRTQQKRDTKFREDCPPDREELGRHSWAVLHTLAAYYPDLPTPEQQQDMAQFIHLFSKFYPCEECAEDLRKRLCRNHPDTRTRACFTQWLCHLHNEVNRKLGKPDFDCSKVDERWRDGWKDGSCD

[8] = system: Streptococcus sp. 'group A'; experiment: Streptococcus pyogenes SK(-)GAS viability under kanamycin – luminescence, BacTiterGlo, confirmation, counter-screen for streptokinase expression inhibitor project, dose response (AID 1900); format: functional, organism-based
Streptokinase A = molecular target: T5, Streptokinase A (Streptococcus pyogenes serotype M1, UniProt P10520); experiment: viability-normalized secreted streptokinase activity reduction – plasminogen activation absorbance, OD405, dose response (AID 1914); format: functional, Streptococcus pyogenes M1 GAS;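 also: secreted streptokinase activity via plasminogen activation per viability signal from cell pellet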
T5 sequence (P10520 whole entry): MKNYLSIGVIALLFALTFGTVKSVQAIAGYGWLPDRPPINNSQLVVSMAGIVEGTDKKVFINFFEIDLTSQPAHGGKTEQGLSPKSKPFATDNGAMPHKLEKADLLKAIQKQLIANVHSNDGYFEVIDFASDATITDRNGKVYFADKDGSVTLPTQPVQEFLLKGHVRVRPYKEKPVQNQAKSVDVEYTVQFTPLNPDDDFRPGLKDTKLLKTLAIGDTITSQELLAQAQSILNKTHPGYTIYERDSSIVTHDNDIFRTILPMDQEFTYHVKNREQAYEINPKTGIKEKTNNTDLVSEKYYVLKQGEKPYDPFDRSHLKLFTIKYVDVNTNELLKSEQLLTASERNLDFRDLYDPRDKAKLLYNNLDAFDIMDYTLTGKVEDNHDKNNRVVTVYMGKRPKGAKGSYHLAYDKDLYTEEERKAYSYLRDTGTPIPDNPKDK

Streptococcus = experiment: GAS UMAA2166 growth inhibition – luminescence, BacTiterGlo, counter-screen for streptokinase expression inhibitor project, dose response (AID 1915); format: functional, organism-based;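 also: potency for reduction of bacterial viability or growth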
Paired box protein Pax-8 = Paired box protein Pax-8 (Homo sapiens, UniProt Q06710); experiment: PAX8 transcriptional activity inhibition in RMG-I – RMG-I cells, luciferase, cherry-pick, dose response (AID 687027); format: functional, cell-based;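 also: luciferase reporter driven by Pax8 target thyroperoxidase promoter measured by SteadyGlo luminescence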
Chain of Paired box protein Pax-8 (Q06710 whole entry): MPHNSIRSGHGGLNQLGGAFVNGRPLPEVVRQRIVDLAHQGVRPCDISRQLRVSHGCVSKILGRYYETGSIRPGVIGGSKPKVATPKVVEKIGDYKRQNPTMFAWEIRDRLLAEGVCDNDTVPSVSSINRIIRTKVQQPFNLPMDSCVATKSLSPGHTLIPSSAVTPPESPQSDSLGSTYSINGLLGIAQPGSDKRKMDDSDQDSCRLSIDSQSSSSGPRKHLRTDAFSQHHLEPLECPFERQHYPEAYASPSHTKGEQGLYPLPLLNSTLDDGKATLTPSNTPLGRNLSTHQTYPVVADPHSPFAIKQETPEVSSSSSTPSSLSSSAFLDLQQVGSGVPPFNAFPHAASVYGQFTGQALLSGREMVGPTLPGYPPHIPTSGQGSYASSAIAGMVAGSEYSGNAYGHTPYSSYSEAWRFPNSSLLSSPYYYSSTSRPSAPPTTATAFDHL

Cytochrome P450 2D6 = Cytochrome P450 2D6 (Homo sapiens, UniProt P10635);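 also: CYP2D6 member of a cytochrome P450 panel assay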
Chain of Cytochrome P450 2D6 (P10635 whole entry): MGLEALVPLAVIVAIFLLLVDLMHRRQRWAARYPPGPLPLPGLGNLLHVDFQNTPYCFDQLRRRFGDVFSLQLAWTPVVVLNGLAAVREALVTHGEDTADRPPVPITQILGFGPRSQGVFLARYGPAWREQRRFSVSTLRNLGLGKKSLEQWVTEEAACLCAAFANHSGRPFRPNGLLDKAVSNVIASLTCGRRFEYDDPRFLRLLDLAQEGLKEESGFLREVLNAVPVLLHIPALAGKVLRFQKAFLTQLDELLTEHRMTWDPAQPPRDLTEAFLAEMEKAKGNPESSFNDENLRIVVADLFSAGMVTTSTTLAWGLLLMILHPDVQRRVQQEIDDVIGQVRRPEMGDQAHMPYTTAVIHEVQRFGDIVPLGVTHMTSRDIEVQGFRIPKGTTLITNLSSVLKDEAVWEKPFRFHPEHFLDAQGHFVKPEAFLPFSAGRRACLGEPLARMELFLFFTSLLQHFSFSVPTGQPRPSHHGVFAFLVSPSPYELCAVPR

[9] = Luminescence Cell-Based Dose Response HTS to Identify Inhibitors of 5'UTR Stem-Loop Driven Prion Protein mRNA Translation in H4 Neuroglioblastoma Cells. [Related pubchem assays: 1827 (Project Summary), 1813 (Primary HTS)]; format: functional
[10] = alpha-synuclein stem-loop luciferase translation blockers – H4 neuroglioma cells, luminescence, confirmation (AID 1988); format: functional, cell-based

Chain of Large T antigen (P03070 whole entry): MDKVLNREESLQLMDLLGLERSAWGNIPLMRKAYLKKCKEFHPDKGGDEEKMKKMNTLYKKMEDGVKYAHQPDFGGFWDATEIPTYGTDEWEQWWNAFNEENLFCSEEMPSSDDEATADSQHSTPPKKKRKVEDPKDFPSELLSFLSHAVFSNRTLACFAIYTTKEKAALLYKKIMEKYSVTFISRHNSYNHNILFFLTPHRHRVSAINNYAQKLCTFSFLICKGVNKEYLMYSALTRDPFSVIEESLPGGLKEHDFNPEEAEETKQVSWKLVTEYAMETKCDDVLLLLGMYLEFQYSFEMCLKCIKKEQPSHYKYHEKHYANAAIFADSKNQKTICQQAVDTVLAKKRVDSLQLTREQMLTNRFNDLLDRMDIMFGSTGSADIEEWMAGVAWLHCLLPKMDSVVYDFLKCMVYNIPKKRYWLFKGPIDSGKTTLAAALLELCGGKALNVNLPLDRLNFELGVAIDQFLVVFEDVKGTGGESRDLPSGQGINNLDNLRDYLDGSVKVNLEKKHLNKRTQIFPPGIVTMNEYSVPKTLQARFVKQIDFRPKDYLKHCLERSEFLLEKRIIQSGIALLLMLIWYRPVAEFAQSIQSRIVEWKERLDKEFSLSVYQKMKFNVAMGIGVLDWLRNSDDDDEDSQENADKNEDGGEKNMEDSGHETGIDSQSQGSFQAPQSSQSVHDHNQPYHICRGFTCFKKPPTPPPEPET

SMILES | IC50 (Large T antigen) | IC50 [3] | EC50 [4] | also measured
CCOc1cc(C(c2c(C)n[nH]c2O)c2c(C)n[nH]c2O)ccc1OC(=O)c1cccc([N+](=O)[O-])c1 | > 100 µM (active) |  |  | AC50 [1]: 0.365 µM (active); EC50 (Protein RecA): 0.205 µM (active)
CN1C(=O)NC(c2ccc(O)cc2)C2=C1CN(c1ccc(O)cc1)C2=O (stereo not given) | 8.64 µM (active) |  |  | IC50 [2]: 34.6 µM (active)
Cc1cc(SCC(=O)Nc2cccc(S(N)(=O)=O)c2)c(C)cc1Br |  | > 47.1 µM (inactive) | > 53 µM (inactive) | 
O=C(NC(=S)N1CCN(c2ccc(O)cc2)CC1)c1cccs1 | 5.39 µM (active) |  |  | 
CCOC(=O)C1=C(O)/C(=C\c2ccc(O)c(OCC)c2)N=C1C | 9.94 µM (active) |  |  | IC50 [2]: 43.3 µM (active)
COc1cc(C#CC#CCN2CCCCC2)ccc1O | 10.3 µM (active) |  |  | EC50 [5]: 6.87 µM (active); EC50 [6]: 6.95 µM (active); EC50 (H4): > 120 µM (not active); AC50 [7]: 3.57 µM (active)
Nc1nc(-c2ccc3c(c2)OCCO3)cs1 |  | > 47.1 µM (inactive) | > 53 µM (inactive) | 
COc1ccc(NC(=O)CN2CCC3(O)CCCCC3C2c2cc(OC)ccc2OC)cc1 (stereo not given) |  | > 47.1 µM (inactive) | > 53 µM (inactive) | 
Nc1ccc(NC(=O)NC2CCCCC2)cc1 | 10.5 µM (active) |  |  | 
CC(C)CNC(=O)CN1c2cccc3cccc(c23)S1(=O)=O |  | > 47.1 µM (inactive) | > 53 µM (inactive) | 
CC(=O)Nc1ccc(S(=O)(=O)Nc2nc3ccccc3nc2Nc2ccc(N)cc2)cc1 | 18.5 µM (active) |  |  | 
CCCN1CCc2c(sc(NC(=O)c3ccc(S(=O)(=O)N4CCN(C(=O)OCC)CC4)cc3)c2C(N)=O)C1 |  |  | 15.2 µM (active) | EC50 [8]: 51.8 µM (active); EC50 (Streptokinase A): > 150 µM (not active); EC50 (Streptococcus): > 150 µM (not active)
CCCC1=Nc2nc(C)nn2C(c2cccnc2)/C1=C(\O)OCC (stereo not given) |  | > 47.1 µM (inactive) | > 53 µM (inactive) | 
CCOC(=O)C1(C(=O)OCC)CCN(S(=O)(=O)c2ccccc2)CC1 |  | > 47.1 µM (inactive) | > 53 µM (inactive) | 
Cc1ccc(S(=O)(=O)NN=Cc2c(O)ccc3ccccc23)cc1 |  | > 47.1 µM (inactive) | > 53 µM (inactive) | 
COc1ccccc1S(=O)(=O)N(C)C[C@@H]1Oc2cc(C#CCC3CCCC3)ccc2S(=O)(=O)N([C@@H](C)CO)C[C@@H]1C |  |  |  | AC50 (Paired box protein Pax-8): 6.16 µM (active)
N#C/C(=C\c1ccc(O)c(O)c1)C(=O)NCCc1ccccc1 | 7.1 µM (active) |  |  | AC50 (Cytochrome P450 2D6): 39.8 µM (inconclusive)
O=C(O)c1cccc(N/N=C/c2cccc3ccccc23)c1 |  |  |  | EC50 [9]: 4.51 µM (active); EC50 [10]: 1.5 µM (active)
CCn1c(SCC(=O)N/N=C/c2ccc(O)c(OC)c2)nc2ccccc21 | 20.4 µM (active) |  |  | 
CCOc1ccc(/C=N/NC(=O)CSc2ccccn2)cc1O | 17.7 µM (active) |  |  | 
